Columns and labels:
[1] = biological target: T1, LOX-1 (soybean lipoxygenase) (Glycine max, UniProt P08170); test: pH-dependent oxygenation by LOX, initial velocity of absorbance at 234 nm; type: biochemical; conditions: substrate 100 μM; for LOX activity on various pH conditions: 30 sec, 25° C.
T1 construct: purchased Sigma-Aldrich Corp (St. Louis, Mo., USA) lipoxidase Type I-B
T1 sequence (P08170 1-839): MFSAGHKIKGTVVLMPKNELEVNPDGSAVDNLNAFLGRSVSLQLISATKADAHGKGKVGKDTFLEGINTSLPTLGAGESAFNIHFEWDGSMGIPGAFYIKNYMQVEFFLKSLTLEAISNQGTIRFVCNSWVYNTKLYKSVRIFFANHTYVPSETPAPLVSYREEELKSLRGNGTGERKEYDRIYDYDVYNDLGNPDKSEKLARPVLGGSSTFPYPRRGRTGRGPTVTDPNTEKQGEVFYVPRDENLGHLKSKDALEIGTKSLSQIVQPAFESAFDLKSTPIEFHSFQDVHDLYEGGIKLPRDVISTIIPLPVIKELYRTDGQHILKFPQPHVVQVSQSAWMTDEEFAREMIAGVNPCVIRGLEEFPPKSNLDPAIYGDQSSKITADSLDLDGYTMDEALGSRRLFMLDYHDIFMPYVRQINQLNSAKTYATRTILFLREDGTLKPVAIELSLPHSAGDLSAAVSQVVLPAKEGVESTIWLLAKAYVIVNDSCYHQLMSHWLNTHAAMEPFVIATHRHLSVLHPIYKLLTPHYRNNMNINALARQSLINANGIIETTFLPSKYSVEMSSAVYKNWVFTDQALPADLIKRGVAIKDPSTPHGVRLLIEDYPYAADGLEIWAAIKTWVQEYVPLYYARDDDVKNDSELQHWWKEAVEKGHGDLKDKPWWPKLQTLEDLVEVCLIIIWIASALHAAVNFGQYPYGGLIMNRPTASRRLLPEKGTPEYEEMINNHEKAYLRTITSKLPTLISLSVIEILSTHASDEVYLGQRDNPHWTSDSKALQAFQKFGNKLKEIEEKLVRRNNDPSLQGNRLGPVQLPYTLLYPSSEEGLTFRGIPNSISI
Description: FIG. 7 is an absorbance-pH graph showing the effect of pH on the rate of LOX-1-catalyzed oxygenation of linoleoyl-lysoPC where LOX-1 (0.02 units/ml) was incubated with 100 μM of linoleoyl-lysoPC (▪), 100 μM of sodium linoleate (●) or 250 μM of soybean LPC (▴) in buffers of various pHs; 200 mM phosphate (pH 6-8), 50 mM borax (pH 8.5-9.5) and 300 mM sodium bicarbonate (pH 10-11).
LOX-1 (0.02 units/ml) was incubated with linoleoyl-lysoPC (100 μM) in 500 μl of buffers of various pHs (pH 6.0-11) at 25° C. as described before (Began et al, Biochemistry 38 (1999) 13920-13927); 200 mM phosphate (pH 6-8), 50 mM borax (pH 8.5-9.5), 300 mM sodium bicarbonate (pH 10-11). Separately, the oxygenation was started by including LOX-1 (0.02 units/ml) in the reaction mixture containing sodium linoleate (100 μM) in the presence of Tween 20 (25 μM). […]
LO (840 units/ml Sigma, Saint Louis, Mo., USA) was incubated with 1-linoleoyl-lysophosphatidylcholine (100 μM) in 0.5 ml of buffers of various pHs (pH 6.0-11) as shown in Table 4 for 30 sec at 25° C.

[2] = biological target: T2, Rabbit reticulocyte 15-lipoxygenase (reticulocyte LOX) (Oryctolagus cuniculus, UniProt P12530); test: Oxygenation of arachidonoyl lysophospholipids by reticulocyte LOX; type: biochemical; conditions: reticulocyte LOX 2 units/ml, 50 mM phosphate buffer pH 7.4
T2 construct: purchased Biomol Inc. (Plymouth Meeting, Pa., USA)
T2 sequence (P12530 1-663): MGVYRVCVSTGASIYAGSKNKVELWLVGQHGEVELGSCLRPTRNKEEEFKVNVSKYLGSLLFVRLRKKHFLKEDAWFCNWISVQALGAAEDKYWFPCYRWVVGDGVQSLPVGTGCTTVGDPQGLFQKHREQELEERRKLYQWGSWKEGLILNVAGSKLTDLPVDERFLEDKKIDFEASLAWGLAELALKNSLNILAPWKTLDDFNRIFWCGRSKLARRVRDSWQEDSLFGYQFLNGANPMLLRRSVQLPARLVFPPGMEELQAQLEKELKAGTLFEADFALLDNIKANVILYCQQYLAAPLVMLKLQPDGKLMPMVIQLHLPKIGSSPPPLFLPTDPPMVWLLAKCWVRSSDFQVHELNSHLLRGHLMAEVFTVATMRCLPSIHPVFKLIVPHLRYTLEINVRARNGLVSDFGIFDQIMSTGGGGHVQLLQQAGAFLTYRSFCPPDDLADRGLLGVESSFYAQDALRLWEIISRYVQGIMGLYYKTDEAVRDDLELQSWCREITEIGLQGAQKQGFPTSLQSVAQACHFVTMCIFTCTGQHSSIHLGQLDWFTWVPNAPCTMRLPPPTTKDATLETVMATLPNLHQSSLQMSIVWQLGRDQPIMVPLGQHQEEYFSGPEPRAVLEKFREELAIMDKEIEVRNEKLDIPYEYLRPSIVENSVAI
Description: Activities of various LOXs were monitored by measuring the increase in absorbance at 234 nm due to the formation of hydroperoxide (ε234=25,000 M^−1 cm^−1) at 25° C. as described before (Smith et al, J. Biol. Chem. 247 (1972) 1038-1047). One unit is defined as the amount of LOXs that can produce one nanomole of conjugated diene per min. The reaction mixture (500 μl) included reticulocyte LOX (2 units/ml) in 50 mM phosphate buffer (pH 7.4), porcine leukocyte LOX (1 unit/ml) in 100 mM phosphate buffer (pH 7.5) containing 5 mM EDTA and 0.03% Tween 20, or soybean LOX-1 (2.5 units/ml) in 50 mM borax buffer (pH 9.0) at 25° C. The reactions were started by including each substrate (100 μM) into the above reaction mixture.
Reticulocyte LOX (2 units/ml), leukocyte LOX (1 units/ml) or soybean LOX-1 (2.5 units/ml) was incubated with each arachidonoyl derivative substrate of various concentrations as described above. The values of kinetic parameters were obtained according to Lineweaver Burke plot analyses as described before (Barroso et al, J. Chromatogr. B. Analyt. Technol. Biomed. Life. Sci. 814 (2005) 21-28).
It is noteworthy that the efficacy of arachidonoyl-lysoPC as a substrate for leukocyte LOX was approximately 10-fold greater than that of arachidonic acid. In an additional study, the oxygenation of arachidonoyl-lysoPC or arachidonoyl-lysoPA by reticulocyte LOX was examined. […]

SMILES | LOX activity on various pH conditions ([1]; pH 6.5) | LOX activity on various pH conditions ([1]; pH 7) | LOX activity on various pH conditions ([1]; pH 7.5) | LOX activity on various pH conditions ([1]; pH 8) | LOX activity on various pH conditions ([1]; pH 8.5) | LOX activity on various pH conditions ([1]; pH 9) | LOX activity on various pH conditions ([1]; pH 9.5) | LOX activity on various pH conditions ([1]; pH 10) | LOX activity on various pH conditions ([1]; pH 10.5) | LOX activity on various pH conditions ([1]; pH 11) | Vm/Km value in reticulocyte LOX-catalyzed oxygenation compared with arachidonic acid [2] | optimal pH range for oxygenation by LOX-1 ([1]; LOX-1 0.02 units/ml, pH 6-11) | LOX activity on various pH conditions ([1]; pH 6)
CCCCC/C=C\C/C=C\CCCCCCCC(=O)O [Linoleic acid, linoleic acid] | ◯ | ◯ | ◯ | ◯ | ◯ | ◯ | ◯ | ◯ | ◯ | ◯ |  |  | 
CCCCC/C=C\C/C=C\C/C=C\C/C=C\CCCC(=O)OCC(O)COP(=O)([O-])OCC[N+](C)(C)C (centres unmarked) [Arachidonoyl-lysoPC, 1-Arachidonoyl lysophosphatidylcholine] |  |  |  |  |  |  |  |  |  |  | somewhat greater than that of arachidonic acid |  | 
CCCCC/C=C\C/C=C\CCCCCCCC(=O)OCC(O)COP(=O)([O-])OCC[N+](C)(C)C (centres unmarked) [Linoleoyl-lysoPC, 1-linoleoyl Lysophosphatidylcholine] |  | ◯ | ◯ | ◯ | ◯ | ◯ |  | ◯ |  | ◯ |  | about 9 | ◯
